In patent publication US20020092037A1, “Use of membrane supports in plant tissue culture processes” (priority 2000, published 2002):

System: P. taeda embryogenic cell lines
Assay: Growth of non-transgenic, transgenic and mixed pine cell cultures on GENETICIN selection medium with support treatments, P. taeda
Format: cell-based, Pinus taeda
Conditions: 15 mg/L in DCR selection medium
Procedure: Stably transformed pine tissue had been generated using a particle bombardment method and selected for the presence of an inserted antibiotic resistance gene, nptII, on DCR2 gelled medium (Table 5), in this example containing 15 mg/L GENETICIN®, hereinafter referred to as DCR selection medium. Additionally, the presence of an inserted gus gene, encoding a β-glucuronidase enzyme in tissue culture cells, had been detected by deep blue staining of cells from each of the transgenic lines upon exposure to a colorigenic glucuronidase enzyme substrate (commercially available from Inalco, Inc.), according to techniques well known to those skilled in the art of plant transformation, and the presence of both transgenes had been verified by use of the polymerase chain reaction (PCR) using techniques well known to those skilled in the art of molecular biology. The transgenic pine lines containing and expressing both transgenes had then been cryopreserved as described in Example 4 above. […]
Cells, or the supports bearing the cells, were transferred onto fresh selection medium at biweekly intervals, and fresh weight of cells for each plate was recorded at each biweekly transfer, for a total of eight weeks (Table 19). […]

In the case of `CN[C@@H]1[C@@H](O)[C@@H](O[C@@H]2[C@@H](O)[C@H](O[C@H]3O[C@H]([C@@H](C)O)[C@@H](O)[C@H](O)[C@H]3N)[C@@H](N)C[C@H]2N)OC[C@]1(C)O` [GENETICIN®], the “selection of non-transformed versus transformed pine tissue” value is reported as “sufficient to kill the non-transformed tissue while allowing growth of the transformed tissue”.
